# Source: PubChem BioAssay AID1919017 (Molecular Pharmacology Branch, DTP, NCI, 2023)
# pIC50: −log10 of the molar value. Values joined by “and” are separate entries in the source; they are usually repeats but may differ in a detail not shown here. Equal values may be shown once.
# Tested on: SW1271 complex spheroids with HUVEC/MSC, growth, % test/control
# Assay: Anticancer human tumor SW1271 cell line growth inhibition [AhR];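 note: spheroids exposed to agents for 7 days before readout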
# Details: for pIC50: curve of first compound; for viability, T/C: stronger effect = lower value
# Description: Multicellular complex tumor spheroid response to aryl hydrocarbon receptor antagonists in combination with a variety of drugs and investigational agents in selected tumor cell lines
# The current study was undertaken to assess response to aryl hydrocarbon receptor antagonists in combination with standard-of-care drugs and investigational agents in solid tumor complex spheroid models. Complex spheroids include a stromal component modeled by human endothelial cells (HUVEC) and fibroblasts modeled by human mesenchymal stem cells (MSCs). The concentration ranges selected for each drug and investigational agent were based upon clinically achievable concentrations if the clinical Cmax of the agent was known.
# Compounds. The drugs and investigational agents: BAY 2416964 (NSC825713), GNF351 (NSC835774), CH-223191 (NSC835775), CPI-455 (NSC825282), aza-TdCyd (NSC777586), decitabine (NSC127716), belinostat (NSC758774), entinostat (NSC756642), pevonedistat (NSC761192), tazemetostat (NSC777109), talazoparib (NSC765396), olaparib (NSC753686), selinexor (NSC780203), nedisertib (M3814, NSC802822), bortezomib (NSC756655), venetoclax (NSC766270), doxorubicin (NSC123127), elimusertib (BAY189344, NSC800525), ceralasertib (AZD6738, NSC777638), TAK-243 (NSC785004), alisertib (NSC759677), etoposide (NSC141540), topotecan (NSC609699), eribulin (NSC707389), gemcitabine (NSC613327), carboplatin (NSC241240), cisplatin (NSC119875), and SN-38 (NSC673596) were obtained from the National Cancer Institute (NCI) Developmental Therapeutics Program Chemical Repository (32). The FDA-approved anticancer drug set is available from the Developmental Therapeutics Program at https://dtp.cancer.gov/organization/dscb/obtaining/available plates.htm. […] The stock solutions were prepared in dimethyl sulfoxide (DMSO, Sigma-Aldrich, St. Louis, MO, cat. D2650), except for the platinum compounds which were prepared in saline (Quality Biological, Gaithersburg, MD, cat. 114-055-101), at 800-fold the tested concentration and stored at -70 degrees C prior to their use. All drugs and investigational agents were tested over a range starting from a high concentration at or near the clinical Cmax and decreasing in half-log increments. If the clinical Cmax for an agent had not been determined, the highest concentration tested was 10 microM (Table 1).
# Cell Culture. All cells were maintained in an incubator at 37 degrees C and 5% CO2 with 95% humidity. The PDC lines were cultured according to standard operating procedures established by the NCI PDMR (https://pdmr.cancer.gov). Briefly, all PDCs were thawed and cultured in Matrigel-coated flasks prepared with a working solution of 1X Ham's F-12 nutrient mix, without supplementation (Invitrogen, Waltham, MA, cat. 11765054), 100 U/mL penicillin-streptomycin (Invitrogen, cat. 15140122), and 2.5% Matrigel (Corning Inc., Corning, NY, cat. 354248) for the first three passages. All PDCs were cultured in complete DMEM/F-12 media containing advanced DMEM/F-12 (Invitrogen, cat. 12634028), 4.9% defined fetal bovine serum, heat inactivated (HyClone Laboratories Inc., Logan, UT, cat. SH30070.03HI), 389 ng/mL hydrocortisone (Sigma-Aldrich, cat. H4001), 9.7 ng/mL human EGF recombinant protein (Invitrogen, cat. PHG0313), 23.4 microg/mL adenine (Sigma-Aldrich, cat. A2786), 97.3 U/mL penicillin-streptomycin (Invitrogen, cat. 15140122), 1.9 mM L-glutamine (Invitrogen, cat. 25030081), and 9.7 microM Y-27632 dihydrochloride (Tocris Bioscience, Bristol, United Kingdom, cat. 1254). The PDCs were cultured in complete DMEM/F12 media without 10 microM Y-27632 dihydrochloride for at least two passages prior to the screen. The established cell lines NCI-H1341 and […] were cultured in DMEM/F-12, HEPES (Invitrogen, cat. 11330032), 5% defined fetal bovine serum (HyClone Laboratories Inc., cat. SH30070.03), ITS premix universal culture supplement [insulin (5 microg/mL), transferrin (5 microg/mL), and selenious acid (5 ng/mL)] […]
compound,measurement,setting,value
Nc1ncn(C2CC(O)C(CO)S2)c(=O)n1 (stereo unspecified) + CC(CO)NC(=O)c1cc(-c2ccc(Cl)cc2)nn(-c2cnn(C)c2)c1=O,pIC50,second compound 0.1 µM,< 6.52
same,pIC50,second compound 0.316 µM,< 6.52
same,pIC50,second compound 1 µM,< 6.52
same,pIC50,second compound 3.16 µM,< 6.52
same,pIC50,second compound 10 µM,< 6.52
same,"viability, T/C","second compound 0.1 µM, first compound 0.000949 µM",110%
same,"viability, T/C","second compound 0.1 µM, first compound 0.003 µM",98.1%
same,"viability, T/C","second compound 0.1 µM, first compound 0.00949 µM",107%
same,"viability, T/C","second compound 0.1 µM, first compound 0.03 µM",102%
same,"viability, T/C","second compound 0.1 µM, first compound 0.0949 µM",83.4%
same,"viability, T/C","second compound 0.1 µM, first compound 0.3 µM",87.3%
same,"viability, T/C","second compound 0.316 µM, first compound 0.000949 µM",103%
same,"viability, T/C","second compound 0.316 µM, first compound 0.003 µM",87%
same,"viability, T/C","second compound 0.316 µM, first compound 0.00949 µM",116%
same,"viability, T/C","second compound 0.316 µM, first compound 0.03 µM",113%
same,"viability, T/C","second compound 0.316 µM, first compound 0.0949 µM",74%
same,"viability, T/C","second compound 0.316 µM, first compound 0.3 µM",68.9%
same,"viability, T/C","second compound 1 µM, first compound 0.000949 µM",93.4%
same,"viability, T/C","second compound 1 µM, first compound 0.003 µM",77.5%
same,"viability, T/C","second compound 1 µM, first compound 0.00949 µM",92%
same,"viability, T/C","second compound 1 µM, first compound 0.03 µM",96%
same,"viability, T/C","second compound 1 µM, first compound 0.0949 µM",99.2%
same,"viability, T/C","second compound 1 µM, first compound 0.3 µM",80.4%
same,"viability, T/C","second compound 3.16 µM, first compound 0.000949 µM",93%
same,"viability, T/C","second compound 3.16 µM, first compound 0.003 µM",76.5%
same,"viability, T/C","second compound 3.16 µM, first compound 0.00949 µM",83.5%
same,"viability, T/C","second compound 3.16 µM, first compound 0.03 µM",82%
same,"viability, T/C","second compound 3.16 µM, first compound 0.0949 µM",84.8%
same,"viability, T/C","second compound 3.16 µM, first compound 0.3 µM",68.1%
same,"viability, T/C","second compound 10 µM, first compound 0.000949 µM",87.3%
same,"viability, T/C","second compound 10 µM, first compound 0.003 µM",78.1%
same,"viability, T/C","second compound 10 µM, first compound 0.00949 µM",80.9%
same,"viability, T/C","second compound 10 µM, first compound 0.03 µM",77.4%
same,"viability, T/C","second compound 10 µM, first compound 0.0949 µM",84.2%
same,"viability, T/C","second compound 10 µM, first compound 0.3 µM",68%
CC[C@@]1(O)C(=O)OCc2c1cc1n(c2=O)Cc2cc3c(CN(C)C)c(O)ccc3nc2-1 + Cc1cncc(-c2nc(NCCc3c[nH]c4ccccc34)c3ncn(C(C)C)c3n2)c1,pIC50,second compound 0.1 µM,< 7.00
same,pIC50,second compound 0.316 µM,< 7.00
same,pIC50,second compound 1 µM,< 7.00
same,pIC50,second compound 3.16 µM,< 7.00
same,pIC50,second compound 10 µM,7.92
same,"viability, T/C","second compound 0.1 µM, first compound 0.000316 µM",85.2%
same,"viability, T/C","second compound 0.1 µM, first compound 0.001 µM",99.7%
same,"viability, T/C","second compound 0.1 µM, first compound 0.00316 µM",124%
same,"viability, T/C","second compound 0.1 µM, first compound 0.01 µM",84.9%
same,"viability, T/C","second compound 0.1 µM, first compound 0.0316 µM",105%
same,"viability, T/C","second compound 0.1 µM, first compound 0.1 µM",91%
same,"viability, T/C","second compound 0.316 µM, first compound 0.000316 µM",93.5%
same,"viability, T/C","second compound 0.316 µM, first compound 0.001 µM",114%
same,"viability, T/C","second compound 0.316 µM, first compound 0.00316 µM",108%
same,"viability, T/C","second compound 0.316 µM, first compound 0.01 µM",94.3%
same,"viability, T/C","second compound 0.316 µM, first compound 0.0316 µM",102%
same,"viability, T/C","second compound 0.316 µM, first compound 0.1 µM",67%
same,"viability, T/C","second compound 1 µM, first compound 0.000316 µM",100%
same,"viability, T/C","second compound 1 µM, first compound 0.001 µM",118%
same,"viability, T/C","second compound 1 µM, first compound 0.00316 µM",108%
same,"viability, T/C","second compound 1 µM, first compound 0.01 µM",88.9%
same,"viability, T/C","second compound 1 µM, first compound 0.0316 µM",77.4%
same,"viability, T/C","second compound 1 µM, first compound 0.1 µM",80.2%
same,"viability, T/C","second compound 3.16 µM, first compound 0.000316 µM",95.2%
same,"viability, T/C","second compound 3.16 µM, first compound 0.001 µM",109%
same,"viability, T/C","second compound 3.16 µM, first compound 0.00316 µM",106%
same,"viability, T/C","second compound 3.16 µM, first compound 0.01 µM",86.5%
same,"viability, T/C","second compound 3.16 µM, first compound 0.0316 µM",96%
same,"viability, T/C","second compound 3.16 µM, first compound 0.1 µM",78%
same,"viability, T/C","second compound 10 µM, first compound 0.000316 µM",66.1%
same,"viability, T/C","second compound 10 µM, first compound 0.001 µM",62.2%
same,"viability, T/C","second compound 10 µM, first compound 0.00316 µM",52%
same,"viability, T/C","second compound 10 µM, first compound 0.01 µM",54.5%
same,"viability, T/C","second compound 10 µM, first compound 0.0316 µM",45%
same,"viability, T/C","second compound 10 µM, first compound 0.1 µM",37.1%
COc1cc(C2c3cc4c(cc3C(OC3OC5COC(C)OC5C(O)C3O)C3COC(=O)C23)OCO4)cc(OC)c1O (stereo unspecified),"viability, T/C",compound 0.0316 µM,81.3% and 81.6% and 96.4%
same,"viability, T/C",compound 0.1 µM,82.5% and 92.6% and 64.2%
same,"viability, T/C",compound 0.316 µM,63.9% and 54.3% and 41.1%
same,"viability, T/C",compound 1 µM,61.9% and 51% and 46.1%
same,"viability, T/C",compound 3.16 µM,60.1% and 72.8% and 44.8%
same,"viability, T/C",compound 10 µM,50.8% and 45.9% and 39.2%
